Values after ≈ are worked out from the molar mass of the structure shown.
Experiments:
[1] = tested on: Bacillus subtilis ATCC 6051; test: Minimum inhibitory concentration; type: cell-based; conditions: ATCC6051, read-out: MIC, Bacillus subtilis ATCC 6051
[2] = tested on: Gram-positive bacteria (S. aureus, S. epidermidis, and B. subtilis); test: MIC assays summarised across the Gram-positive bacteria; type: cell-based; conditions: MIC without versus with 0.002% polysorbate 80

SMILES: CN[C@H](CC(C)C)C(=O)N[C@H]1C(=O)N[C@@H](CC(N)=O)C(=O)N[C@H]2C(=O)N[C@H]3C(=O)N[C@H](C(=O)N[C@H](C(=O)O)c4cc(O)cc(O)c4-c4cc3ccc4O)[C@H](O)c3ccc(c(Cl)c3)Oc3cc2cc(c3O[C@@H]2O[C@H](CO)[C@@H](O)[C@H](O)[C@H]2O[C@H]2C[C@](C)(N)[C@H](O)[C@H](C)O2)Oc2ccc(cc2Cl)[C@H]1O [vancomycin]
- MIC [1]: 0.5 µg/mL (≈ 0.345 µM)
- decrease in the MIC with 0.002% polysorbate 80 [2]: modest two-fold decrease
